Assay results as given in PubChem BioAssay AID1996.
In brackets after ≈: the same amount, converted by molar mass.

Settings: buffer; pH 7.4; 200.0 µM

| SMILES | solubility kinetic [µg/mL] |
| --- | --- |
| COc1cccc(CC(=O)Nc2ccc(-c3csc(C)n3)cc2)c1 | 2.5 (≈ 7.39 µM) |
| COC(=O)[C@H](C)NC(=O)N1CCC(Cc2ccccc2)CC1 | > 45.7 |
| O=C(CSc1ccc2c(c1)OCCO2)Nc1cccnc1 | > 45.4 |
| CCOC(=O)C1=Nc2ccccc2/C1=C\c1c(O)n(C)c(=O)n(C)c1=O | 46.5 (≈ 131 µM) |
| CCN(CC)S(=O)(=O)c1ccc(N2CC(C(=O)N3Cc4ccccc4CC3C(N)=O)CC2=O)cc1 (stereo not drawn) | > 74.8 |
| Cc1ccc(/C(=C\CN2CCCC2)c2ccccn2)cc1.Cl | > 47.2 |
| c1ccc2c(c1)CCNC2c1ccncc1 (stereo not drawn) | > 31.5 |
| COc1ccc(C(=O)OCC(=O)Nc2ccccc2)cc1[N+](=O)[O-] | 3 (≈ 9.08 µM) |
| O=C1/C(=C\c2ccc(O)c(O)c2)SC(=S)N1Cc1ccccc1 | 4 (≈ 11.6 µM) |
| O=[N+]([O-])C(C1CCS(=O)(=O)C1)C1CCS(=O)(=O)C1 (stereo not drawn) | 41.8 (≈ 141 µM) |
| Cc1ccc(S(=O)(=O)NCC(C)NC(=O)CN2CCOCC2)cc1 (stereo not drawn) | > 53.3 |
| COc1ccc(CNc2nc3ccccc3n2C)c(OC)c1 | > 44.6 |
| Cc1ccc(C(O)c2ccc(-n3ccnc3)cc2)cc1 (stereo not drawn) | 39.5 (≈ 149 µM) |
| CC(Cc1ccccc1)N1Cc2ccccc2C1 (stereo not drawn) | 35.3 (≈ 149 µM) |
| O=C(NC(=S)NCc1ccccc1)c1cccc([N+](=O)[O-])c1 | 2.2 (≈ 6.98 µM) |
| CCOc1cccc(/C=C/c2ccc3cccc(O)c3n2)c1OC | < 0.7 |
| S=C(c1ccc(-c2cccc(Cl)c2)o1)N1CCCCC1 | 6.1 (≈ 19.9 µM) |
| CCCCn1c2ccccc2c2cc(CC(N)=O)ccc21 | 3.8 (≈ 13.6 µM) |
| Cc1cc(C)c2[nH]c(C)c(CN3CCCCCC3)c(=O)c2c1 | > 44.8 |
| CCOC(=O)C1CCN(C(=O)Nc2ccc(C)c(Cl)c2)CC1 | 6.9 (≈ 21.2 µM) |
| CN(Cc1cccs1)c1nc(-c2cccnc2)nc2ccccc12 | 3 (≈ 9.02 µM) |

| SMILES | solubility kinetic [µg/mL] |
| --- | --- |
| Cc1ccc2c(c1)C1C[N+](C)(CC(=O)Nc3ccccc3Cl)CCC1N2C(=O)c1ccccc1Cl.[Cl-] (stereo not drawn) | > 81.7 |
| Cc1ccc(O)c(NC(=O)c2cc([N+](=O)[O-])ccc2Cl)c1 | 8.5 (≈ 27.7 µM) |
| O=C(NCc1ccc(F)cc1)C(Cc1ccccc1)n1cccc1 (stereo not drawn) | 32.2 (≈ 99.9 µM) |
| O=C(Nc1ccc(SC(F)F)cc1)c1ccccc1F | 6.1 (≈ 20.5 µM) |
| O=C(Cc1ccccc1Cl)NCc1cccnc1 | > 39.1 |
| COc1ccc(/C=N/Nc2nc(C)cc(=O)[nH]2)cc1OC | > 43.2 |
| O=C(/C=C/c1cccc([N+](=O)[O-])c1)OCC(=O)N1CCN(C(=O)c2ccco2)CC1 | 30.9 (≈ 74.7 µM) |
| CC(=O)C1=C(C)N2CCN=C2S1 | > 27.3 |
| CCC(=NCc1cccnc1)c1c(O)n(-c2ccccc2C)c(=O)[nH]c1=O | > 54.7 |
| Cn1c(-c2ccccn2)[n+](C)c2ccccc21.[Cl-] | > 39 |
| CC(=O)Nc1cccc(Oc2nc(C(F)(F)F)nc3ccccc23)c1 | 14 (≈ 40.3 µM) |
| COC(=O)C1=C(C)N(C)C(=O)NC1c1ccc(O)c(Cl)c1 (stereo not drawn) | > 46.6 |
| CN(C)CCOC(C)(c1ccccc1)c1ccccn1.O=C(O)CCC(=O)O (stereo not drawn) | > 58.3 |
| COc1ccc(C)cc1NC(=S)Nc1ccccc1SC | 10.5 (≈ 33 µM) |
| Cc1cc(C(=O)OCC(=O)N2CCC(C)CC2)c2ccccc2n1 | > 49 |
| N#Cc1ccc(S(=O)(=O)NC2CCN(Cc3ccccc3)CC2)cc1 | 42.5 (≈ 120 µM) |
| CC1CC(C)CN(C(=O)COC(=O)c2c[nH]c3ccccc23)C1 (stereo not drawn) | 12.7 (≈ 40.4 µM) |
| O=C(COc1ccccc1[N+](=O)[O-])Nc1cc(Cl)ccc1C(=O)O | > 52.6 |
| CCOC(=O)c1c(C)[nH]c(C(=O)COC(=O)c2cc(C)oc2C)c1C | 3 (≈ 8.64 µM) |
| Cc1cccn2c(=O)nc(SCC(=O)NC3CCCCC3)nc12 | > 49.9 |
| COCC(=O)NC1CCCCCC1 | > 27.8 |

| SMILES | solubility kinetic [µg/mL] |
| --- | --- |
| CC(C)OP(=O)(OC(C)C)C(C)NC(=O)Cc1ccccc1 (stereo not drawn) | 44.4 (≈ 136 µM) |
| C=C(C)COc1ccc(-c2ncncc2-c2ccc(Cl)cc2)c(O)c1 | < 0.4 |
| COc1cc(NC(=O)COC(=O)c2ccc([N+](=O)[O-])s2)cc(OC)c1OC | 10.4 (≈ 26.2 µM) |
| Cc1cccc(C)c1OCC(=O)Nc1ccc2c(c1)C(=O)NC2=O | 1.2 (≈ 3.7 µM) |
| Cc1ccc(SCc2noc(-c3c(C)noc3C)n2)cc1 | 2.1 (≈ 6.97 µM) |
| Cc1ccc(C(=O)O/N=C(\N)Cc2cccs2)cc1[N+](=O)[O-] | 39.9 (≈ 125 µM) |
| CC(=O)N/C(=C/c1ccc2c(c1)OCO2)C(=O)N1CCOCC1 | 45 (≈ 141 µM) |
| COCCCNC(=O)COc1ccc2oc3c(c2c1)CCCC3 | 44.2 (≈ 139 µM) |
| Cc1cccc(C)c1NC(=O)CCn1cnc2ccccc2c1=O | > 48.2 |
| CCOc1ccccc1NC(=O)NC1Cc2ccccc2C1 | < 0.3 |
| O=C(Nc1cccnc1)c1ccc(C(=O)Nc2cccnc2)cc1 | 0.8 (≈ 2.51 µM) |
| Cc1ccc(NC(=O)C2CC2)cc1S(=O)(=O)N1CCOCC1 | > 48.7 |
| O=C(NC(=S)NCc1nc2ccccc2[nH]1)c1ccc(F)cc1 | 45.3 (≈ 138 µM) |
| CC(C)N(Cc1ccccc1)C(=O)c1ccc2c(c1)OCO2 | 42.8 (≈ 144 µM) |
| COC(=O)Cn1c2ccccc2c2nc3ccccc3nc21 | 0.2 (≈ 0.687 µM) |
| CCc1cccc(NS(=O)(=O)c2cccc3cccnc23)c1 | 1 (≈ 3.2 µM) |
| Cc1ccccc1NS(=O)(=O)c1ccc2oc(=O)ccc2c1 | > 47.3 |
| Cc1ccccc1C(=O)N1CCC(C(=O)NC2CCCCC2)CC1 | 44.4 (≈ 135 µM) |
| CN(C(=O)c1ccnn1C)C1CCCN(Cc2ccccc2F)C1 (stereo not drawn) | > 49.6 |
| COc1ccc(C2(C(=O)NCCc3ccccc3)CCCC2)cc1 | 31.1 (≈ 96.2 µM) |
| CCN(C(=O)COc1ccc(N(C)S(=O)(=O)c2ccc(NC(C)=O)cc2)cc1)C1CCCCC1 | 18.9 (≈ 38.8 µM) |

| SMILES | solubility kinetic [µg/mL] |
| --- | --- |
| O=C(NCCc1c[nH]c2ccccc12)c1ccc(F)cc1F | > 45 |
| Cc1ccc(SCC(=O)O/N=C(\N)c2cccnc2)cc1 | 40 (≈ 133 µM) |
| O=C(NC(=S)Nc1ccccc1O)c1cccnc1 | > 41 |
| COc1ccccc1C(=O)OCC(=O)c1ccc(CNC(C)=O)s1 | 50.1 (≈ 144 µM) |
| O=C(c1ccc2c(c1)OCCO2)N1CCN(c2ccccn2)CC1 | > 48.8 |
| NS(=O)(=O)c1ccc(NC(=O)CN2CCc3ccccc32)cc1 | 23.6 (≈ 71.2 µM) |
| CCOC(=O)c1cc(C(=O)NC(C)c2ccccc2)c(=O)[nH]c1C (stereo not drawn) | 1.6 (≈ 4.87 µM) |
| CN(c1ccc(C(=O)Nc2ccc(CC#N)cc2)cc1)S(C)(=O)=O | 4.2 (≈ 12.2 µM) |
| O=C1c2ccccc2C(=O)N1CCOc1ccccc1Br | 4 (≈ 11.6 µM) |
| Cc1ccc(OCC(=O)NC2CCSc3ccccc32)cc1 (stereo not drawn) | 11.8 (≈ 37.6 µM) |
| O=S(=O)(NCc1ccco1)c1ccc(Cl)s1 | > 41.7 |
| COc1cc(C(=O)O)c([N+](=O)[O-])c(OC)c1OC | > 38.6 |
| COc1cc2ccccc2cc1C(=O)Nc1ccccc1C | < 0.6 |
| N#CC1(NC(=O)COc2ccccc2[N+](=O)[O-])CCCCC1 | > 45.5 |
| COCCNC(=O)CN1CCCCCC1.Cl | 34.8 |
| Cl.Fc1ccc(Nc2nc(NCc3ccco3)c3ccccc3n2)cc1 | 2.1 |
| CCc1ccc(NC(=O)Nc2cnccn2)cc1 | 9.9 (≈ 40.9 µM) |
| CCC(=NCC1CCCO1)c1c(O)n(-c2ccccc2C)c(=O)[nH]c1=O (stereo not drawn) | > 53.6 |
| O=C(NC(=S)N1CCc2ccccc21)C1CCC1 | > 39.1 |
| COc1ccccc1-n1c(O)c(/C=C2\C=Nc3ccccc32)c(=O)[nH]c1=O | 4.4 (≈ 12.2 µM) |
